From US9126945B2, “N-(3-carbamoylphenly)-1H-pyrazole-5-carboxamide derivatives and the use thereof for controlling animal pests” (BAYER INTELLECTUAL PROPERTY GMBH, priority 2011, dated 2015) come the findings set out here.

Holding throughout (assay type): in vivo
In one test the test system is Amblyomma hebraeum. Description: Amblyomma hebaraeum test (AMBYHE). The conditions noted are these: 100 ppm; after 42 days. The protocol:
Amblyomma hebaraeum Test (AMBYHE)
Solvent: dimethyl sulphoxide
Tick nymphs (Amblyomma hebraeum) are placed into perforated plastic beakers and immersed in the desired concentration for one minute. The ticks are transferred on filter paper into a Petri dish and stored in a climate-controlled cabinet.
After 42 days, the kill in % is determined.

Another test deals with Phaedon cochleariae. Nature of the test: Phaedon cochleariae spray test (PHAECO), cabbage leaves, ppm. The conditions noted are these: 168 h, 4 ppm, 7 dat. The source says:
Phaedon cochleariae Spray Test (PHAECO)
(§1) Solvent: 7 parts by weight of dimethylformamide
(§2) Emulsifier: 2 parts by weight of alkylaryl polyglycol ether
(§3) If the addition of ammonium salts or/and penetrants is required, these are in each case added in a concentration of 1000 ppm to the solution of the preparation.

The next test concerns Plutella xylostella. Nature of the test: Plutella xylostella spray test (PLUTMA). The settings on record: 168 h, 7 dat.
Excerpt: Plutella xylostella Spray Test (PLUTMA)
as §1, §2, §3

The test system of the next test is Boophilus microplus. Nature of the test: Boophilus microplus test (BOOPMI injection). The settings on record: for % Activity dat: BOOPMI injection, 7 dat.
The subject of another test is Ctenocephalides felis. Description: Ctenocephalides felis oral (CTECFE).
For a further test, the system named is Spodoptera frugiperda. Nature of the test: Spodoptera frugiperda test (SPODFR spray treatment), maize leaf discs. From the text: Spodoptera frugiperda Test (SPODFR Spray Treatment)

Broadly, the inhibition is the share of the control response that was lost under treatment. On to `Cn1nc(C(F)(F)C(F)(F)F)c(C(F)(F)F)c1C(=O)Nc1ccc(Cl)c(C(=O)NC2(C#N)CC2)c1` [Example 10], for which the “kill in % (effect)” value is reported as 100% in the test with Amblyomma hebraeum and 100% in the test with Ctenocephalides felis (100 ppm, after 2 days). Besides, the inhibition at 4 ppm in the test with Phaedon cochleariae is 100%; in the test with Ctenocephalides felis (Ctenocephalides felis, po, 48 h, CTECFE, 4 ppm, 2 dat) it was 98%. Further, the inhibition at 20 ppm with Plutella xylostella is 100%; in the test on Ctenocephalides felis (Ctenocephalides felis, po, 48 h, CTECFE, 20 ppm, 2 dat), 100%. The “efficacy in % (laying of fertile eggs)” value in the test on Boophilus microplus (20 μg/animal, after 7 days) worked out at 100%. Further, the results for the “% Activity dat” value with Boophilus microplus (0.16 μg/animal) and in the test with Boophilus microplus (0.8 μg/animal) were 80% and 100%, respectively. The compound further had an inhibition at 0.8 ppm in the test with Ctenocephalides felis (Ctenocephalides felis, po, 48 h, CTECFE, 0.8 ppm, 2 dat) of 90%. The compound also registered an inhibition at 100 g/ha with Spodoptera frugiperda (Spodoptera frugiperda, foliar, 168 h, SPODFR, 100 g/ha, 7 dat) of 100%. For the same compound, the efficacy in % in the test on Spodoptera frugiperda (application rate 500 g/ha, after 7 days) stood at 100%.
